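Exposure lasted 48 hours, with cells grown in 96-well plates and compounds tested at five concentrations. GI50 marks 50% less growth.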 Activity calls are given as the source filed them. Cut-off read from the data, not from the text of the source: active = GI50 up to about 1.1 µM and inactive = higher.
Tests used:
Experiment in all cases: NCI tumour cell line growth inhibition, 48 h
A498 = test system: A498
COLO 205 = test system: COLO 205
DU-145 = test system: DU-145
HT-29 = test system: HT-29
IGROV-1 = test system: IGROV-1
K562 = test system: K562
M14 = test system: M14
MDA-MB-231 = test system: MDA-MB-231
MOLT-4 = test system: MOLT-4
NCI-H522 = test system: NCI-H522
PC-3 = test system: PC-3
RPMI-8226 = test system: RPMI-8226
SF-295 = test system: SF-295
SF-539 = test system: SF-539
SNB-19 = test system: SNB-19
UACC-257 = test system: UACC-257
UACC-62 = test system: UACC-62
HL-60 = test system: HL-60
LOX IMVI = test system: LOX IMVI

Measured: GI50

COc1ccc(C2=NNC(=O)c3ccccc3N2c2nc(-c3cccs3)nc3cc(OC)c(OC)cc23)cc1
inactive: A498 2.61 µM | COLO 205 2.86 µM | DU-145 6.49 µM | HT-29 3.15 µM | IGROV-1 11.1 µM | K562 24.3 µM | M14 4.29 µM | MDA-MB-231 2.81 µM | MOLT-4 16.6 µM | NCI-H522 5.98 µM | PC-3 4.68 µM | RPMI-8226 3.71 µM | SF-295 3.95 µM | SF-539 2.79 µM | SNB-19 2.79 µM | UACC-257 4.19 µM | UACC-62 2.34 µM

Fc1cc(-c2cc(-c3ccc4c(c3)OCO4)n[nH]2)c(Cl)cc1Cl
inactive: COLO 205 3.42 µM | DU-145 3.34 µM | HL-60 > 100 µM | HT-29 4 µM | IGROV-1 1.71 µM | K562 4.45 µM | LOX IMVI 2.95 µM | M14 4.75 µM | MDA-MB-231 1.75 µM | MOLT-4 > 32.2 µM | NCI-H522 4.1 µM | PC-3 3.62 µM | RPMI-8226 4.54 µM | SF-295 3.05 µM | SF-539 2.31 µM | SNB-19 3.5 µM | UACC-257 9.82 µM | UACC-62 1.46 µM

CN(C)CC/C(=N\Nc1ccc(Cl)cc1Cl)c1ccccc1
inactive: A498 16.4 µM | COLO 205 15.1 µM | HL-60 5.07 µM | HT-29 14.3 µM | IGROV-1 10.1 µM | K562 14.3 µM | LOX IMVI 14.8 µM | M14 15.5 µM | MOLT-4 5.73 µM | NCI-H522 > 10 µM | RPMI-8226 3.94 µM | SF-295 18.5 µM | SF-539 18.1 µM | SNB-19 16.1 µM | UACC-257 15.9 µM | UACC-62 14.6 µM

CN(C=O)/C=C/c1cc(O)ccc1O
inactive: A498 > 68.2 µM | COLO 205 21.3 µM | DU-145 33.4 µM | HL-60 14.2 µM | HT-29 32.6 µM | IGROV-1 51.3 µM | K562 24.9 µM | LOX IMVI 23.2 µM | M14 41.3 µM | MOLT-4 10.8 µM | NCI-H522 4.17 µM | RPMI-8226 26.1 µM | SF-295 32.5 µM | SF-539 38.3 µM | SNB-19 > 72.8 µM | UACC-257 30.3 µM | UACC-62 31.3 µM

COC(CC1(OC)OC(=O)C=C1N)OC (stereo unspecified)
inactive: A498 > 100 µM | COLO 205 > 100 µM | HL-60 > 100 µM | HT-29 > 100 µM | IGROV-1 > 100 µM | K562 > 100 µM | LOX IMVI > 100 µM | M14 > 100 µM | MOLT-4 > 100 µM | NCI-H522 > 100 µM | RPMI-8226 > 100 µM | SF-295 > 100 µM | SF-539 > 100 µM | SNB-19 > 100 µM | UACC-257 > 100 µM | UACC-62 > 100 µM

CC(C)(C)OC(=O)N(CCCCNC(=O)c1ccccc1)CCCNC(=O)c1ccccc1
inactive: A498 > 100 µM | COLO 205 > 100 µM | DU-145 > 100 µM | HL-60 31.4 µM | HT-29 > 100 µM | IGROV-1 > 100 µM | K562 > 100 µM | M14 > 100 µM | MDA-MB-231 > 100 µM | MOLT-4 46.8 µM | NCI-H522 > 100 µM | PC-3 98.6 µM | RPMI-8226 > 100 µM | SF-295 > 100 µM | SF-539 > 100 µM | SNB-19 > 100 µM | UACC-257 > 100 µM | UACC-62 > 100 µM

O=C(/C=C/c1ccc(Cl)c(Cl)c1)CCN1CCN(CCC(=O)/C=C/c2ccc(Cl)c(Cl)c2)CC1
inactive: A498 34.9 µM | COLO 205 21.8 µM | DU-145 23.8 µM | HL-60 6.22 µM | HT-29 17.7 µM | IGROV-1 17 µM | K562 22.6 µM | LOX IMVI 13 µM | M14 17.8 µM | MDA-MB-231 25 µM | MOLT-4 22.3 µM | NCI-H522 8.13 µM | PC-3 20.1 µM | RPMI-8226 3.21 µM | SF-295 19.7 µM | SF-539 14.4 µM | UACC-257 33 µM | UACC-62 19.6 µM

CC(=O)CC(=O)CCC(=O)Nc1cccc(C(F)(F)F)c1
inactive: A498 > 100 µM | COLO 205 > 100 µM | HL-60 > 100 µM | HT-29 > 100 µM | IGROV-1 > 100 µM | K562 > 100 µM | LOX IMVI > 100 µM | M14 > 100 µM | MOLT-4 > 100 µM | NCI-H522 > 100 µM | RPMI-8226 > 100 µM | SF-295 > 100 µM | SF-539 > 100 µM | SNB-19 > 100 µM | UACC-257 > 100 µM | UACC-62 > 100 µM
